Results from ChEMBL document CHEMBL1687773 (Antimicrob Agents Chemother, 2010).
pEC50, pIC50: −log10 of the molar value. Activity calls are given as the source filed them. No cut-off for these calls is given here.

Key:
[1] = tested on: Human immunodeficiency virus 1; assay: Antiviral activity against HIV1 NL4-3 harboring reverse transcriptase V108I, E138K mutant infected in human SupT1 cells derived from 9 viral passages with lersivirine assessed as inhibition of viral replication after 21 days relative to drug sensitive HIV1 NL4-3; assay type: functional, SUP-T1
[2] = tested on: Human immunodeficiency virus 1; assay: Antiviral activity against HIV1 NL4-3 harboring reverse transcriptase E233V mutant infected in human HeLaP4 cells assessed as inhibition of viral replication after 5 days by beta-galactosidase reporter assay; assay type: functional, organism-based
[3] = Ratio of CC30 for human HeLaP4 cells to EC90 for HIV1
[4] = target: Human immunodeficiency virus type 1 reverse transcriptase (Human immunodeficiency virus 1, UniProt Q72547, K103N); assay: Inhibition of HIV1 HXB2 reverse transcriptase K103N mutant activity by primer extension assay
[5] = organism: Homo sapiens; assay: Inhibition of human central benzodiazepine receptor at up to 10 uM
[6] = target: Human immunodeficiency virus type 1 reverse transcriptase (Human immunodeficiency virus 1, UniProt Q72547); assay: Inhibition of HIV1 reverse transcriptase activity by primer extension assay
[7] = target: Beta-1 adrenergic receptor (Homo sapiens) (UniProt P08588); assay: Inhibition of human adrenergic beta1 receptor at up to 10 uM
Beta-1 adrenergic receptor (Homo sapiens), sequence (P08588 whole entry, looked up): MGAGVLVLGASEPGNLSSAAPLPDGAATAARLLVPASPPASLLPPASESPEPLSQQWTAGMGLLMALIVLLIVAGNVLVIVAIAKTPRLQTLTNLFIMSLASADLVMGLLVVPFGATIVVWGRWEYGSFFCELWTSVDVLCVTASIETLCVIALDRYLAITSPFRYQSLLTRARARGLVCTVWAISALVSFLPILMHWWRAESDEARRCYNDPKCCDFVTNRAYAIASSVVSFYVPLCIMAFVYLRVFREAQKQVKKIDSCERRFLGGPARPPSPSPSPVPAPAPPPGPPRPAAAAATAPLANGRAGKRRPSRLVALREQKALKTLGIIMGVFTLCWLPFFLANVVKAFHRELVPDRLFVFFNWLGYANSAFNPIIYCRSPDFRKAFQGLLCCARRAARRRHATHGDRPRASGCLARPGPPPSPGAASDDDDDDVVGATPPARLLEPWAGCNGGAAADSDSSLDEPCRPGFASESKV

[8] = target: Acetylcholinesterase (Homo sapiens) (UniProt P22303); assay: Inhibition of human acetylcholinesterase at up to 10 uM
Acetylcholinesterase (Homo sapiens), sequence (P22303 whole entry): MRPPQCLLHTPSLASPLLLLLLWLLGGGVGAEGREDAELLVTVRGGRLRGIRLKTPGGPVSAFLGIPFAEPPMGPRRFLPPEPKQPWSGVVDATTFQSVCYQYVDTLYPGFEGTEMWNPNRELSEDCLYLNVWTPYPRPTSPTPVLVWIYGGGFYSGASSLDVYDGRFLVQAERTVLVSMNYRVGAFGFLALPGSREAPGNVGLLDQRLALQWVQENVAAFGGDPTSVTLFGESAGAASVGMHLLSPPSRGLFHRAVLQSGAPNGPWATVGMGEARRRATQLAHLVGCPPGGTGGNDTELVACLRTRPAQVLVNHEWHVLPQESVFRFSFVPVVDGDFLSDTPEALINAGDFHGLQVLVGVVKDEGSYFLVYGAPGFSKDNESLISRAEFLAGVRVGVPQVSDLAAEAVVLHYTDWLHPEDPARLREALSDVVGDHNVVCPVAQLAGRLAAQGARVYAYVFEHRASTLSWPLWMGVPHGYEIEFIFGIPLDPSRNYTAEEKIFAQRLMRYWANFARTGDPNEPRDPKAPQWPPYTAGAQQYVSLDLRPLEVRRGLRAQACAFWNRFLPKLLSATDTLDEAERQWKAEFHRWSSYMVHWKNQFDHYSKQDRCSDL

[9] = target: Muscarinic acetylcholine receptor (Homo sapiens) (UniProt P20309+P08173+P11229+P08172+P08912); assay: Inhibition of human non-selective muscarinic receptor at up to 10 uM; assay type: protein assay
[10] = target: Type-1 angiotensin II receptor (Homo sapiens) (UniProt P30556); assay: Inhibition of human AT1 receptor at up to 10 uM
Type-1 angiotensin II receptor (Homo sapiens), sequence (P30556 whole entry): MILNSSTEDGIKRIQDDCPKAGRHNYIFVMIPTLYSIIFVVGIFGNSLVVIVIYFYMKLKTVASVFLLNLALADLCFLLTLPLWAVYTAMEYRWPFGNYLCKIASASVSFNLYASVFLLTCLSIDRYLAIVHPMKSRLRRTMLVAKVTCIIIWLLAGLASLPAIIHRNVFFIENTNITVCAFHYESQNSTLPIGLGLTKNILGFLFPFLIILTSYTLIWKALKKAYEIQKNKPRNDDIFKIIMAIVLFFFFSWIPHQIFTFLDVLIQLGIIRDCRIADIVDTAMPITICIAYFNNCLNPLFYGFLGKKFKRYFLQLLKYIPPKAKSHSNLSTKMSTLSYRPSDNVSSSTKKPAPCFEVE

[11] = tested on: Human immunodeficiency virus 1; assay: Ratio of EC50 for wild type HIV1 NL4-3 to EC50 for HIV1 NL4-3 harboring reverse transcriptase Y188C mutant; assay type: functional
[12] = target: D(2) dopamine receptor (Homo sapiens) (UniProt P14416); assay: Inhibition of human dopamine D2 receptor at up to 10 uM
D(2) dopamine receptor (Homo sapiens), sequence (P14416 whole entry): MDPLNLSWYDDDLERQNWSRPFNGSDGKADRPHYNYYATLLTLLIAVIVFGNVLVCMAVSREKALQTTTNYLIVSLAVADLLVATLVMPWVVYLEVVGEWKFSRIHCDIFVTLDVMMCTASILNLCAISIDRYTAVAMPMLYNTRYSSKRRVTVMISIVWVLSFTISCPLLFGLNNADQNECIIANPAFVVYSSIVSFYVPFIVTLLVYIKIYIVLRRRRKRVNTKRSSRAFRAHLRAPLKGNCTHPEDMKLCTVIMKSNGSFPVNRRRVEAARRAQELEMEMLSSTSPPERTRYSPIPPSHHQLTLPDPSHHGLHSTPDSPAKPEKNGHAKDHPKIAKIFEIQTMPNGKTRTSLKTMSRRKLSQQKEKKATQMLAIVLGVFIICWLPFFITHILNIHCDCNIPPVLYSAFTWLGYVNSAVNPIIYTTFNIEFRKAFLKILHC

[13] = tested on: Human immunodeficiency virus 1; assay: Antiviral activity against HIV1 NL4-3 harboring reverse transcriptase Y181I mutant infected in human HeLaP4 cells assessed as inhibition of viral replication after 5 days by beta-galactosidase reporter assay; assay type: functional, organism-based
[14] = tested on: Human immunodeficiency virus type 1 reverse transcriptase (Human immunodeficiency virus 1), Q72547 [M184V]; assay: Inhibition of HIV1 histidine-tagged reverse transcriptase M184V mutant activity by primer extension assay
[15] = tested on: Human immunodeficiency virus 1; assay: Antiviral activity against HIV1 NL4-3 harboring reverse transcriptase P236L mutant infected in human HeLaP4 cells assessed as inhibition of viral replication after 5 days by beta-galactosidase reporter assay; assay type: functional, organism-based
[16] = tested on: Human immunodeficiency virus 1; assay: Antiviral activity against HIV1 NL4-3 harboring reverse transcriptase V106A mutant infected in human HeLaP4 cells assessed as inhibition of viral replication after 5 days by beta-galactosidase reporter assay; assay type: functional, organism-based
[17] = tested on: Human immunodeficiency virus 1; assay: Ratio of EC50 for wild type HIV1 NL4-3 to EC50 for HIV1 NL4-3 harboring reverse transcriptase F227L mutant; assay type: functional
[18] = tested on: Human immunodeficiency virus 1; assay: Ratio of EC50 for wild type HIV1 NL4-3 to EC50 for HIV1 NL4-3 harboring reverse transcriptase L100I mutant; assay type: functional
[19] = target: Histamine H1 receptor (Homo sapiens) (UniProt P35367); assay: Inhibition of human histamine H1 receptor at up to 10 uM
Histamine H1 receptor (Homo sapiens), sequence (P35367 whole entry): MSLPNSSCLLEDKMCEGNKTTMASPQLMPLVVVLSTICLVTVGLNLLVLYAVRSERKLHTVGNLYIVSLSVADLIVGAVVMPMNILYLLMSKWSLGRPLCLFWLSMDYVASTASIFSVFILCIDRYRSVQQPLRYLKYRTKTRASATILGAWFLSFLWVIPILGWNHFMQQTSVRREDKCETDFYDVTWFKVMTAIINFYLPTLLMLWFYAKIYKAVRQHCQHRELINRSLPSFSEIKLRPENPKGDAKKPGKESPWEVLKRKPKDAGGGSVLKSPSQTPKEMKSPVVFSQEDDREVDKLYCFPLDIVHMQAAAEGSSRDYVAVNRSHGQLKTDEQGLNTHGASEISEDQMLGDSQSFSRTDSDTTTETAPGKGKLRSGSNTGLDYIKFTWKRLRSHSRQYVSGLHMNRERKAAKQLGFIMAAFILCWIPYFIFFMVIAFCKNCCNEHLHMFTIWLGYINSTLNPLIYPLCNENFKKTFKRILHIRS

[20] = target: Adrenergic receptor alpha-2 (Homo sapiens) (UniProt P08913+P18825+P18089); assay: Inhibition of human adrenergic alpha2 receptor at up to 10 uM
[21] = tested on: Human immunodeficiency virus type 1 reverse transcriptase (Human immunodeficiency virus 1), Q72547 [K103N]; assay: Inhibition of HIV1 histidine-tagged reverse transcriptase K103N mutant activity by primer extension assay
[22] = tested on: Human immunodeficiency virus 1; assay: Antiviral activity against HIV1 NL4-3 harboring reverse transcriptase L100I mutant infected in human HeLaP4 cells assessed as inhibition of viral replication after 5 days by beta-galactosidase reporter assay; assay type: functional, organism-based
[23] = tested on: Human immunodeficiency virus 1; assay: Ratio of EC50 for wild type HIV1 NL4-3 to EC50 for HIV1 NL4-3 harboring reverse transcriptase E233V mutant; assay type: functional
[24] = tested on: Human immunodeficiency virus 1; assay: Ratio of EC50 for wild type HIV1 NL4-3 to EC50 for HIV1 NL4-3 harboring reverse transcriptase K101E mutant; assay type: functional
[25] = tested on: PBMC; assay: Cytotoxicity against human PBMC cells by aqueous nonradioactive cell proliferation assay; assay type: cell-based
[26] = tested on: Human immunodeficiency virus 1; assay: Ratio of EC50 for wild type HIV1 NL4-3 to EC50 for HIV1 NL4-3 harboring reverse transcriptase P236L mutant; assay type: functional
[27] = target: Glutamate [NMDA] receptor (Homo sapiens) (UniProt Q05586+Q12879+Q13224+O15399+O60391+Q14957+Q8TCU5); assay: Inhibition of human NMDA receptor at up to 10 uM
[28] = Cytotoxicity against human HeLaP4 cells at 200 uM by aqueous nonradioactive cell proliferation assay; assay type: cell-based; details: helap4, 200 µM
[29] = tested on: Human immunodeficiency virus 1; assay: Ratio of EC50 for wild type HIV1 NL4-3 to EC50 for HIV1 NL4-3 harboring reverse transcriptase V108I mutant; assay type: functional
[30] = organism: Homo sapiens; assay: Inhibition of human L-type calcium channel dihydropyridine binding site at up to 10 uM
[31] = organism: Homo sapiens; assay: Inhibition of human L-type calcium channel diltiazem binding site at up to 10 uM
[32] = tested on: Human immunodeficiency virus 1; assay: Antiviral activity against wild type HIV1 NL4-3 infected in human HeLaP4 cells assessed as inhibition of viral replication after 5 days by beta-galactosidase reporter assay; assay type: functional, organism-based; details: Human immunodeficiency virus 1, NL4-3, HeLaP4, 120 h
[33] = tested on: Human immunodeficiency virus 1; assay: Ratio of EC50 for wild type HIV1 NL4-3 to EC50 for HIV1 NL4-3 harboring reverse transcriptase L234I mutant; assay type: functional
[34] = tested on: Human immunodeficiency virus 1; assay: Antiviral activity against HIV1 NL4-3 infected in human SupT1 cells derived from 11 viral passages assessed as inhibition of viral replication after 21 days relative to drug sensitive HIV1 NL4-3; assay type: functional, SUP-T1
[35] = tested on: Human immunodeficiency virus type 1 reverse transcriptase (Human immunodeficiency virus 1), Q72547 [E138K]; assay: Inhibition of HIV1 histidine-tagged reverse transcriptase E138K mutant activity by primer extension assay
[36] = target: Beta-2 adrenergic receptor (Homo sapiens) (UniProt P07550); assay: Inhibition of human adrenergic beta2 receptor at up to 10 uM
Beta-2 adrenergic receptor (Homo sapiens), sequence (P07550 whole entry, looked up): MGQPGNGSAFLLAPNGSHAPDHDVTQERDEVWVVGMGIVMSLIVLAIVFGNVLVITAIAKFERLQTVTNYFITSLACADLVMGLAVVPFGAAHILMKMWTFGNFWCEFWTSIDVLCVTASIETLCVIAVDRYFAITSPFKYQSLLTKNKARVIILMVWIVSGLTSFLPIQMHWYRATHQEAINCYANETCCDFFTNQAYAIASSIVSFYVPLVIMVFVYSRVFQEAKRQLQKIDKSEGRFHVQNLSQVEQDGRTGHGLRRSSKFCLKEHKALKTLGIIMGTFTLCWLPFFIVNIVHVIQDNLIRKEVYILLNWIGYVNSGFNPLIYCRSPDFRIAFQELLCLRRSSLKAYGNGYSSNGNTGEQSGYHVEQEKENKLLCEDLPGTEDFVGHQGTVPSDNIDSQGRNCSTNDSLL

[37] = tested on: Human immunodeficiency virus type 1 reverse transcriptase (Human immunodeficiency virus 1), Q72547 [K101E]; assay: Inhibition of HIV1 histidine-tagged reverse transcriptase K101E mutant activity by primer extension assay
[38] = tested on: Human immunodeficiency virus 1; assay: Ratio of EC50 for wild type HIV1 NL4-3 to EC50 for HIV1 NL4-3 harboring reverse transcriptase V106A, F227L mutant; assay type: functional
[39] = organism: Homo sapiens; assay: Inhibition of human Phosphodiesterase 3 at up to 10 uM
[40] = tested on: Human immunodeficiency virus type 1 reverse transcriptase (Human immunodeficiency virus 1), Q72547 [Y181I]; assay: Inhibition of HIV1 histidine-tagged reverse transcriptase Y181I mutant activity by primer extension assay

With `CCc1nn(CCO)c(CC)c1Oc1cc(C#N)cc(C#N)c1` [LERSIVIRINE] the “fold change (FC)” value [1] was 14, the inhibition [2] was “Active” and the Ratio [3] was over 7092. For the same molecule, the pIC50 [4] was 6.67, the inhibition [5] was “inactive” and the pIC50 [6] was 6.93. The inhibition [7] was “inactive”, the inhibition [8] was “inactive” and the inhibition [9] was “inactive”. For the same molecule, the inhibition [10] was “inactive”, the “Ratio EC50” value [11] was 10 and the inhibition [12] was “inactive”. For the same molecule, the inhibition [13] was “Active”, the inhibition [14] was “Active” and the inhibition [15] was “Active”. For the same molecule, the inhibition [16] was “Active”, the “Ratio EC50” value [17] was 10 and the “Ratio EC50” value [18] was 10. The inhibition [19] was “inactive”, the inhibition [20] was “inactive” and the inhibition [21] was “Active”. For the same molecule, the inhibition [22] was “Active”, the “Ratio EC50” value [23] was 10 and the “Ratio EC50” value [24] was 10. For the same molecule, the CC30 [25] was 96900 nM, the “Ratio EC50” value [26] was 10 and the inhibition [27] was “inactive”. The Activity [28] was “Non-toxic”, the “Ratio EC50” value [29] was 10 and the inhibition [30] was “inactive”. The inhibition [31] was “inactive”, the pEC50 [32] was 8.40 and the “Ratio EC50” value [33] was 20. For the same molecule, the “fold change (FC)” value [34] was 0.6, the inhibition [35] was “Active” and the inhibition [36] was “inactive”. For the same molecule, the inhibition [37] was “Active”, the “Ratio EC50” value [38] was over 200 and the inhibition [39] was “inactive”. For the same molecule, the inhibition [40] was “Active”.
